Measurements published in PubChem BioAssay (NCI).
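Five compound concentrations were applied to cells in 96-well plates for 48 hours; endpoints were derived by simple linear interpolation of the resulting dose-response curve. TGI: total growth inhibition.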

Legend:
Test in all cases: growth of human tumour cells (NCI), 48 h
MDA-MB-435 = test system: MDA-MB-435
NCI-H460 lung = test system: NCI-H460 lung
PC-3 prostate = test system: PC-3 prostate
RXF 393 renal = test system: RXF 393 renal
BT-549 breast = test system: BT-549 breast
SW-620 colon = test system: SW-620 colon
SK-OV-3 ovarian = test system: SK-OV-3 ovarian
CAKI-1 renal = test system: CAKI-1 renal
HT29 colon = test system: HT29 colon
SNB-75 CNS = test system: SNB-75 CNS
NCI-H522 lung = test system: NCI-H522 lung
IGROV1 ovarian = test system: IGROV1 ovarian
SK-MEL-5 melanoma = test system: SK-MEL-5 melanoma
OVCAR-4 ovarian = test system: OVCAR-4 ovarian
A549 NSCLC = test system: A549 NSCLC
HS 578T breast = test system: HS 578T breast
MALME-3M melanoma = test system: MALME-3M melanoma
HL-60(TB) leukemia = test system: HL-60(TB) leukemia
SN12C renal = test system: SN12C renal
LOX IMVI melanoma = test system: LOX IMVI melanoma
U251 CNS = test system: U251 CNS
HCT-116 colon = test system: HCT-116 colon
SF-268 CNS = test system: SF-268 CNS
MOLT-4 leukemia = test system: MOLT-4 leukemia
NCI/ADR-RES ovarian = test system: NCI/ADR-RES ovarian
CCRF-CEM leukemia = test system: CCRF-CEM leukemia
SF-295 CNS = test system: SF-295 CNS
SR leukemia = test system: SR leukemia
786-0 renal = test system: 786-0 renal
RPMI-8226 leukemia = test system: RPMI-8226 leukemia
M14 melanoma = test system: M14 melanoma
HOP-62 NSCLC = test system: HOP-62 NSCLC
EKVX NSCLC = test system: EKVX NSCLC
HOP-92 NSCLC = test system: HOP-92 NSCLC
SF-539 CNS = test system: SF-539 CNS
K-562 leukemia = test system: K-562 leukemia
MCF7 breast = test system: MCF7 breast
OVCAR-8 ovarian = test system: OVCAR-8 ovarian
SK-MEL-28 melanoma = test system: SK-MEL-28 melanoma
KM12 colon = test system: KM12 colon
MDA-N = test system: MDA-N
ACHN renal = test system: ACHN renal
MDA-MB-231 breast = test system: MDA-MB-231 breast
HCT-15 colon = test system: HCT-15 colon
SNB-19 CNS = test system: SNB-19 CNS
COLO 205 colon = test system: COLO 205 colon
T-47D breast = test system: T-47D breast
OVCAR-3 ovarian = test system: OVCAR-3 ovarian
TK-10 renal = test system: TK-10 renal
OVCAR-5 ovarian = test system: OVCAR-5 ovarian
A498 renal = test system: A498 renal
UACC-257 melanoma = test system: UACC-257 melanoma
SK-MEL-2 melanoma = test system: SK-MEL-2 melanoma
NCI-H226 lung = test system: NCI-H226 lung
DU-145 prostate = test system: DU-145 prostate
UO-31 renal = test system: UO-31 renal

## O=C1NC(=O)C(c2c[nH]c3cc(Br)ccc23)=C1c1cnc[nH]1
MDA-MB-435
  TGI: > 100 µM
NCI-H460 lung
  TGI: > 100 µM
PC-3 prostate
  TGI: > 100 µM
RXF 393 renal
  TGI: > 100 µM
BT-549 breast
  TGI: 75 µM
SW-620 colon
  TGI: > 100 µM
SK-OV-3 ovarian
  TGI: > 100 µM
CAKI-1 renal
  TGI: > 100 µM
HT29 colon
  TGI: > 100 µM
SNB-75 CNS
  TGI: > 100 µM
NCI-H522 lung
  TGI: 98.7 µM
IGROV1 ovarian
  TGI: > 100 µM
SK-MEL-5 melanoma
  TGI: 25 µM
OVCAR-4 ovarian
  TGI: > 100 µM
A549 NSCLC
  TGI: > 100 µM
HS 578T breast
  TGI: > 100 µM
MALME-3M melanoma
  TGI: > 100 µM
HL-60(TB) leukemia
  TGI: 93.3 µM
SN12C renal
  TGI: > 100 µM
LOX IMVI melanoma
  TGI: > 100 µM
U251 CNS
  TGI: > 100 µM
HCT-116 colon
  TGI: > 100 µM
SF-268 CNS
  TGI: > 100 µM
MOLT-4 leukemia
  TGI: > 100 µM
NCI/ADR-RES ovarian
  TGI: > 100 µM
CCRF-CEM leukemia
  TGI: > 100 µM
SF-295 CNS
  TGI: > 100 µM
SR leukemia
  TGI: > 100 µM
786-0 renal
  TGI: > 100 µM
RPMI-8226 leukemia
  TGI: > 100 µM
M14 melanoma
  TGI: > 100 µM
HOP-62 NSCLC
  TGI: > 100 µM
EKVX NSCLC
  TGI: > 100 µM
HOP-92 NSCLC
  TGI: > 100 µM
SF-539 CNS
  TGI: 72.6 µM
K-562 leukemia
  TGI: > 100 µM
MCF7 breast
  TGI: > 100 µM
OVCAR-8 ovarian
  TGI: > 100 µM
SK-MEL-28 melanoma
  TGI: > 100 µM
KM12 colon
  TGI: > 100 µM
MDA-N
  TGI: > 100 µM
ACHN renal
  TGI: > 100 µM
MDA-MB-231 breast
  TGI: > 100 µM
HCT-15 colon
  TGI: > 100 µM
SNB-19 CNS
  TGI: > 100 µM
COLO 205 colon
  TGI: 63.2 µM
T-47D breast
  TGI: > 100 µM
OVCAR-3 ovarian
  TGI: 81.4 µM
TK-10 renal
  TGI: > 100 µM
OVCAR-5 ovarian
  TGI: > 100 µM
A498 renal
  TGI: 52.2 µM
UACC-257 melanoma
  TGI: 44.9 µM
SK-MEL-2 melanoma
  TGI: 79.3 µM
NCI-H226 lung
  TGI: 7.87 µM
DU-145 prostate
  TGI: > 100 µM
UO-31 renal
  TGI: > 100 µM
